Type in all cases: cell-based, human
In experiment [1] the test system is STAT1. Kind of experiment: Western blot for phosphorylated STAT1. The settings on record: OVCAR-5 and A2780 cell lines; 20 minutes. The method, then:
FIGS. 6A-6B: Western blot analysis of IFN and IL4-PE STAT activation. (FIG. 6A) Western blots for phosphorylated STAT1 in OVCAR-5 and A2780 cells stimulated with IFNα2a, IFNγ, IL4-PE, or all three agents for 20 minutes at the highest concentrations from FIGS. 1A-1B (representative of three separate experiments). (FIG. 6B) Western blots for phosphorylated STAT6 in OVCAR-5 and A2780 cells stimulated with IFNα2a, IFN, IL4-PE, or all three agents for 20 minutes (representative of three separate experiments). P38 protein kinase was used as a loading control.
Cell pellets were snap-frozen and stored at −80° C. Pellets were thawed and lysed with MPER buffer supplemented with protease inhibitors. Cell lysates were centrifuged at 13,000 RPM at 4° C. for 20 minutes to clarify the lysate. The clarified lysate was removed and placed in a new vial. The protein concentration was measured using a NANODROP® Spectrophotometer (LIFE TECHNOLOGIES®, Wilmington, Del.). The lysate was mixed with reducing loading buffer (LIFE TECHNOLOGIES®, Waltham Mass.) and heated at 90° C. for 10 minutes. The samples were allowed to cool and were either used immediately or stored at 4° C. for future analysis. The samples were analyzed using 10% Bis-Tris gels and then transferred to nitrocellulose membranes per the manufacturer's directions. […]

In experiment [2] the test system is A2780 cells. Description: Chemical inhibition of Jak signaling, cytotoxicity assay. As to conditions: inhibitor 10 μM, 2 hours before. How it is done:
(§1) FIGS. 7A-7D: Chemical inhibition of Jak signaling. OVCAR-5 cells (FIGS. 7A-7B) or A2780 cells (FIGS. 7C-7D) were treated with either ruxolitinib or tofacitinib for 2 hours at a final concentration of 10 μm before different concentrations of IFNs, IL4-PE or the combination of each were added. Percent viability was measured after 3 days in culture.
(§2) Cell lines were seeded at 10^4 cells/well in a 96-well plate in 100 μL of media and incubated until adherence (4 hr, 37° C., 5% CO2). Serial dilutions of IL4-PE, IFN-α2a, or IFN-γ were added and incubated for three days. IFNs were diluted using serial dilutions in cRPMI to obtain a final concentration of 200 ng/mL of both IFN-α2a or IFN-γ. For ruxolitinib and tofacitinib studies, 10 μM (final concentration) was added to the plates and incubated at 37° C. for 2 hours before IFNs or IL4-PE was added. The media was then removed, and cell viability was determined by crystal violet dye uptake in fixed, live cells. Crystal violet is a triarylmethane dye that binds to ribose type molecules such as DNA in nuclei. The dye staining is directly proportional to the cell biomass. Dye absorbance was measured at 570 nm using a spectrophotometer.

In experiment [3] the test system is OVCAR-5 cells. The description is as above. As to conditions: inhibitor 10 μM, 2 hours before, 20/4 and 200/40 ng/mL IFNs/IL4-PE, 3 days. How it is done:
as §1, §2

On to “IFNγ: IFN-γ purchased from INTERMUNE Pharmaceutical Inc.”, for which the STAT1 phosphorylation result in experiment [1] is given as “induced”. For the molecule `C[C@@H]1CCN(C(=O)CC#N)C[C@@H]1N(C)c1ncnc2[nH]ccc12` [Tofacitinib, tofacitinib], the “effect on IFN signaling / IFN-mediated killing” value in experiment [2] was “blocked”. For the same molecule, in experiment [3], the “effect on IFN- and IFNs and IL4-PE-mediated cell death / IFN signaling” value is on record as “dose-dependent blocking of IFN signaling”.

B1: IFNα: human IFN-α2a, gift of Hoffmann LaRoche (protein)
chain: MARPFAFLMVLVVISYWSTCSLGCDLPQTHNLRNKKILTLLAQMRRLSPLSCLKDRKDFGFPQEKVDAQQIQEAQAIPVLSELTQQILTLFTSKDSSAAWNATLLDSFCTGLHQLLNDLQGCLMQLVGMKELPLTQEDSQLAMKKYFHRITVYLREKKHSPCAWEVVRAEVWRALSSSVNLLARLSEEKE
modifications: Mouse
notes: human IFN-α2a, gift of Hoffmann LaRoche
For the molecule B1, the STAT1 phosphorylation entry in experiment [1] is on record as “induced”.

For the origin of these results see US10849960B2 (priority 2017, dated 2020).
